# Several values for one entry are separate records, joined by “and”; a condition that tells them apart may be missing. Equal entries are not always repeated. Where two headings read alike, the source gives them in different places.
# How the values were obtained:
# A. fumigatus (NCPF2010) = assay: A. fumigatus cell-based ergosterol assay; design: species or system Aspergillus fumigatus; conditions: for IC50: Aspergillus fumigatus, NCPF2010, 24 h, normalized by crystal violet, read-out: IC50, inhibition of ergosterol production
# Procedure: After incubation for 24 h at 35°C, medium was removed from all wells and replaced with reaction buffer (Amplex red cholesterol assay kit; Thermo Fisher) and Amplex red solution. Plates were incubated for 30 min at 37°C, protected from light, after which fluorescence was quantified using a spectrophotometer. Medium was removed from all wells and replaced with crystal violet solution (1% [vol/vol]), and plates were incubated at room temperature on a shaker for 30 min. Plates were washed three times with phosphate-buffered saline (PBS), and sodium dodecyl sulfate solution (0.1% [vol/vol]) was added across the plate to lyse the cells. After incubation at room temperature for 1 h, the absorbance was measured by determining the OD590 by use of a spectrophotometer.
# [1] = tested on: Aspergillus niger (ATCC 1015); assay: MIC, EUCAST; type: cell-based; conditions: ATCC1015, 1 strain, EUCAST, read-out: MIC
# [2] = tested on: Candida krusei (ATCC 6258); assay: MIC, CLSI; type: cell-based; conditions: Pichia kudriavzevii, ATCC6258; 1 strain, CLSI; read-out: MIC
# [3] = tested on: Rhizopus oryzae (ATCC 11145); assay: MIC, CLSI; type: cell-based
# [4] = Precipitation in EUCAST medium; type: physicochemical
# Plasma protein binding = type: in vitro ADME
# [5] = Systemic exposure after topical/intranasal treatment; type: in vivo; conditions: data not shown
# [6] = tested on: A. fumigatus hyphae (NCPF2010); assay: Persistence of action on A. fumigatus hyphae (resazurin-based microtiter assay); conditions: for IC50: Aspergillus fumigatus, NCPF2010, 16 h, read-out: Hyphae IC50, No washout; for Hyphae Fold change: washout versus no washout
# Procedure: The persistence of action of test agents was calculated for A. fumigatus hyphae (NCPF2010). […] The plates were incubated for exactly 20 min at 35°C and 5% CO2. After the incubation time had elapsed, all wells on the designated washout plate were aspirated, and growth medium (100 μl/well) was added across the plate. […] Resazurin (0.04%; diluted in growth medium) was added to all wells of both nonwashout and washout plates (5 μl/well) to give a final concentration of 0.002% resazurin. The plates were incubated at 35°C and 5% CO2 for 16 h. […] The percent inhibition for each well was calculated, and the IC50 was calculated from the concentration-response curve generated for each test compound by use of a four-parameter logistic equation (Dotmatics, Bishops Stortford, United Kingdom).
# [7] = Rhizopus arrhizus, ATCC11145, 1 strain, read-out: MIC
smiles,measurement,setting,value
"Cc1cc(N2CCN(c3ccc(C(=O)Nc4ccc(F)cc4)cc3)CC2)ccc1OC[C@@H]1CO[C@@](Cn2cncn2)(c2ccc(F)cc2F)C1 [PC945, 4-[4-(4-{[(3R,5R)-5-(2,4-difluorophenyl)-5-(1H-1,2,4-triazol-1-ylmethyl)oxolan-3-yl]methoxy}-3-methylphenyl)piperazin-1-yl]-N-(4-fluorophenyl)benzamide]","fold more potent than posaconazole, ergosterol production",A. fumigatus (NCPF2010),2.6 fold
same,"fold more potent than voriconazole, ergosterol production",A. fumigatus (NCPF2010),14 fold
same,IC50,A. fumigatus (NCPF2010),0.0047 µg/mL and 6.9 nM
same,MIC,[1],> 8 µg/mL
same,MIC,[2],0.125 µg/mL
same,MIC,[3]; 1 strain,2 µg/mL
same,MIC,[3]; [7],2 µg/mL
same,concentration at which compound precipitated in EUCAST medium,[4],> 4000 ng/mL
same,plasma protein binding,Plasma protein binding,high levels of plasma protein binding
same,systemic exposure,[5],very low systemic exposure
same,IC50,[6],0.0001 µg/mL
same,fold more potent than posaconazole at inhibiting hyphal growth,[6]; no washout,4.5 fold
same,fold more potent than voriconazole at inhibiting hyphal growth,[6]; no washout,110 fold
"CC[C@@H]([C@H](C)O)n1ncn(-c2ccc(N3CCN(c4ccc(OC[C@@H]5CO[C@@](Cn6cncn6)(c6ccc(F)cc6F)C5)cc4)CC3)cc2)c1=O [Posaconazole, posaconazole]",IC50,A. fumigatus (NCPF2010),0.012 µg/mL and 17 nM
same,MIC,[1],0.2 µg/mL
same,MIC,[3]; 1 strain,>8 µg/mL
same,MIC,[3]; [7],> 8 µg/mL
same,IC50,[6],0.00045 µg/mL
same,Hyphae Fold change,[6],4.90 fold
same,Hyphae Fold change,[6]; listed as posaconazole,4.9 fold
